The values below come from patent publication US20240352016A1, “A CYCLIN-DEPENDENT KINASE INHIBITOR” (TAIZHOU EOC PHARMA CO., LTD., priority 2021, published 2024).

Structures are written as SMILES. Where a name gives a salt, the structure may show the parent alone. Read-outs that look alike come from different tables or passages of the source. Bounds are passed on as bounds.

Assay [1] concerns the target T1, CDK7/Cyclin H/MAT1 (Homo sapiens, UniProt P50613).
T1 construct: made in house; host or cells: insect cell
The assay is described as follows: CDK kinase activity mobility shift assay (MSA). Type of assay: biochemical. As to the method: Human CDKs, cyclins and other partner proteins were expressed in insect cell, purified individually, reconstituted and then purified to homogeneity before being used for kinase activity assay.
Kinase activity of CDKs were determined by mobility shift assay (MSA), in which the formation of a phosphorylated fluorescence-labelled peptide in reaction mixture was monitored through capillary electrophoresis in a microfluidic environment. […] The mixtures were incubated at 27° C. for 40 min before being quenched with 4 μl 80 mM EDTA, then read on a LabChip EZ Reader II (Caliper Life Science). IC50 of compound for CDKs was calculated by Prism (GraphPad) using a four-parameter nonlinear curve fit.

The subject of assay [2] is HCC70. Briefly: Inhibition of cell proliferation (CyQuant), HCC70. Type of assay: cell-based. The following applies: Homo sapiens; HCC70 breast cancer cell line, 120 hour, CyQuant assay kit. As to the method:
(§1) Exemplary compounds of the invention were tested at different concentrations (from 10 μM to 610 pM; 4-fold serial dilutions) for their ability to inhibit the proliferation of various cancer cell lines. Known kinase inhibitor staurosporine were used as positive controls. Cells were grown in the indicated media listed below. All cell lines were supplemented with FBS (Life Technologies) and 100 U-mL^−1 penicillin, 100 μg·mL^−1 streptomycin (Invitrogen) and cultured at 37° C. in a humidified chamber in the presence of 5% CO2. Proliferation assays were conducted over a 120 hour time period. CyQuant assay kit (ThermoFisher) was used to assess the anti-proliferative effects of the compounds following manufacturer's directions.
(§2) The following cancer cell lines may be tested with the exemplary media conditions indicated:
(§3) Exemplary results of these assays are set forth in Tables 3, where “A” represents an IC50 value of less than 0.2 μM; “B” represents an IC50 value of between 0.2 μM and 5 μM, inclusive; and “C” represents an IC50 value of greater than 5 μM. “NT” represents that the specified compound was not tested in the specified assay.

For assay [3], the system named is OVCAR3. The assay is described as follows: Inhibition of cell proliferation (CyQuant), OVCAR3. Type of assay: cell-based. As to conditions: Homo sapiens, OVCAR-3; OVCAR3 ovarian cancer cell line, 120 hour, CyQuant assay kit. As to the method:
as §1, §2
• OVCAR3: RPMI 1640+0.01 mg/mi bovine insulin+20% FBS+1% Glutamax
as §3

[4] abbreviates: The CDK may be CDK7, mobility shift assay, 2 mM ATP, 3 nM CDK/Cyclin, 27° C. for 40 min, read-out: IC50 (CDK inhibition).

T1 sequence (P50613 whole entry): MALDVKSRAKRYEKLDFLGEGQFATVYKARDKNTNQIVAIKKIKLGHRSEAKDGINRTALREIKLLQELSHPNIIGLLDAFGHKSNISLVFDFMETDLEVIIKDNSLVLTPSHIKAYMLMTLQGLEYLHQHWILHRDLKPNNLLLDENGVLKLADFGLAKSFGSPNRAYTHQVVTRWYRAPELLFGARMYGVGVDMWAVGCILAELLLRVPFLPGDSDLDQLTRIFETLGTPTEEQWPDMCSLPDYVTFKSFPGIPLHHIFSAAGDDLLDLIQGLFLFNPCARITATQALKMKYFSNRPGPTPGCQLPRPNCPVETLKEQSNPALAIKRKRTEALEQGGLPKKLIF
T1 sequence (P51946 whole entry partner): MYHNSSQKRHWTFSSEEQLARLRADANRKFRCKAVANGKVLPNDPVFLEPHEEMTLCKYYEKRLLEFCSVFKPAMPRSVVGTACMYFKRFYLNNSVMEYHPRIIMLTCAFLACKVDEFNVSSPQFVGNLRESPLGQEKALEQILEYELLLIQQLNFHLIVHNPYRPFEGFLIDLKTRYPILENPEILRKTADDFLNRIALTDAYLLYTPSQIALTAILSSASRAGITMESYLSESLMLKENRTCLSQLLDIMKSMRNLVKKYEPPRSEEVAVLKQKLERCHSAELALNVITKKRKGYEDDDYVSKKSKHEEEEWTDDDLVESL
T1 sequence (P51948 whole entry partner): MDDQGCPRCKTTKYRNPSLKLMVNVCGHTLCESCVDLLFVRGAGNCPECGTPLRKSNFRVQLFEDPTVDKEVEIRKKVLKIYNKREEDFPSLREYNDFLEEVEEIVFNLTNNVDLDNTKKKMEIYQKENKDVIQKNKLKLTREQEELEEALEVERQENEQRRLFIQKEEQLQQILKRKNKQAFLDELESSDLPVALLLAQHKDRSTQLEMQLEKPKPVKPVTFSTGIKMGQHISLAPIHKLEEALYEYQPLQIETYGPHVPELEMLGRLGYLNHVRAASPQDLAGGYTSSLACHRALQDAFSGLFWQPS

On to `CC(C)n1cnc2c(NCc3ccccc3-n3ccc(C(=O)N4CCN(CCO)CC4)n3)nc(N3CCC(N)CC3)nc21` [Compound I-2, (1-(2-(((2-(4-aminopiperidin-1-yl)-9-isopropyl-9H-purin-6-yl)amino)methyl)phenyl)-1H-pyrazol-3-yl)(4-(2-hydroxyethyl)piperazin-1-yl)methanone], for which the results for the IC50 in assay [1] (setting [4]), in assay [2] and in assay [3] were less than 100 nM, 200 to 5000 nM and 200 to 5000 nM, respectively. With `CC(C)n1cnc2c(NCc3ccccc3-n3ccc(C(=O)N4CCN(C)CC4)n3)nc(N3CCC(N)CC3)nc21` [Compound I-3, (1-(2-(((2-(4-aminopiperidin-1-yl)-9-isopropyl-9H-purin-6-yl)amino)methyl)phenyl)-1H-pyrazol-3-yl)(4-methylpiperazin-1-yl)methanone], the IC50 in assay [1] (setting [4]) is less than 100 nM; in assay [2], 200 to 5000 nM; in assay [3], 200 to 5000 nM. Take `CC(C)N1CCN(c2ccn(-c3ccccc3CNc3nc(N4CCC(N)CC4)nc4c3ncn4C(C)C)n2)CC1` [Compound I-4, 2-(4-aminopiperidin-1-yl)-9-isopropyl-N-(2-(3-(4-isopropylpiperazin-1-yl)-1H-pyrazol-1-yl)benzyl)-9H-purin-6-amine hydrochloride]: the IC50 in assay [1] (setting [4]) was less than 100 nM; in assay [2] it was less than 200 nM; in assay [3], less than 200 nM. Take `CC(C)n1nccc1-c1ncccc1CNc1nc(N2CCC(N)CC2)nc2c1ncn2C(C)C` [Compound I-6, 2-(4-aminopiperidin-1-yl)-9-isopropyl-N-((2-(1-isopropyl-1H-pyrazol-5-yl)pyridin-3-yl)methyl)-9H-purin-6-amine]: the values for the IC50 in assay [1] (setting [4]), in assay [2] and in assay [3] were less than 100 nM, less than 200 nM and less than 200 nM, respectively.

Take `CCn1cnc2c(NCc3ccccc3-n3cccn3)nc(N3CCC(N)CC3)nc21` [Compound I-7, N-(2-(1H-pyrazol-1-yl)benzyl)-2-(4-aminopiperidin-1-yl)-9-ethyl-9H-purin-6-amine hydrochloride]: the IC50 in assay [1] (setting [4]) was less than 100 nM; in assay [2], 200 to 5000 nM; in assay [3], 200 to 5000 nM. Consider `CC(C)n1cnc2c(NCc3ccccc3-n3cccn3)nc(N3CCC(N(C)C)CC3)nc21` [Compound I-26, N-(2-(1H-pyrazol-1-yl)benzyl)-2-(4-(dimethylamino)piperidin-1-yl)-9-isopropyl-9H-purin-6-amine], for which the IC50 in assay [1] (setting [4]) is less than 100 nM.

In the case of `c1ccc(-n2cccn2)c(CNc2nc(N3CCNCC3)nc3c2ncn3C2CCCC2)c1` [Compound I-27, N-(2-(1H-pyrazol-1-yl)benzyl)-9-cyclopentyl-2-(piperazin-1-yl)-9H-purin-6-amine], the IC50 in assay [1] (setting [4]) was less than 100 nM. On to `CC(C)n1cnc2c(NCc3ccccc3-n3cccn3)nc(N3CCNCC3)nc21` [Compound I-28, N-(2-(1H-pyrazol-1-yl)benzyl)-9-isopropyl-2-(piperazin-1-yl)-9H-purin-6-amine], for which, in assay [1], the IC50 is less than 100 nM.

In the case of `CC(C)n1cnc2c(NCc3ccccc3-n3cccn3)nc(N3CCC(O)(CN(C)C)CC3)nc21` [Compound I-29, 1-(6-((2-(1H-pyrazol-1-yl)benzyl)amino)-9-isopropyl-9H-purin-2-yl)-4-((dimethylamino)methyl)piperidin-4-ol], the IC50 in assay [1] (setting [4]) was in the range of 100 to 500 nM. The same measure, in the same setting: with `CC(C)n1cnc2c(NCc3ccccc3-n3cccn3)nc(NC3CCNCC3)nc21` [Compound I-30, N6-(2-(1H-pyrazol-1-yl)benzyl)-9-isopropyl-N2-(piperidin-4-yl)-9H-purine-2,6-diamine hydrochloride] the figure was 100 to 500 nM; with `CC(C)n1cnc2c(NCc3ccccc3-n3cccn3)nc(N3CCC(O)(Cn4cc(N)cn4)CC3)nc21` [Compound I-31, 1-(6-((2-(1H-pyrazol-1-yl)benzyl)amino)-9-isopropyl-9H-purin-2-yl)-4-((4-amino-1H-pyrazol-1-yl)methyl)piperidin-4-ol], 100 to 500 nM; with `CC(C)n1cnc2c(NCc3ccccc3-n3cccn3)nc(N3CCC(CN(C)C)CC3)nc21` [Compound I-32, N-(2-(1H-pyrazol-1-yl)benzyl)-2-(4-((dimethylamino)methyl)piperidin-1-yl)-9-isopropyl-9H-purin-6-amine], 100 to 500 nM. Consider `CC(C)n1cnc2c(NCc3ccccc3-n3cccn3)nc(NC3CN4CCC3CC4)nc21` (stereo not drawn) [Compound I-33, N6-(2-(1H-pyrazol-1-yl)benzyl)-9-isopropyl-N2-(quinuclidin-3-yl)-9H-purine-2,6-diamine], for which the IC50 in assay [1] (setting [4]) was 100 to 500 nM. On the same count and under the same terms, with `CC(C)n1cnc2c(NCc3ccccc3-n3cccn3)nc(N3CCC(CN)C3)nc21` (stereo not drawn) [Compound I-34, N-(2-(1H-pyrazol-1-yl)benzyl)-2-(3-(aminomethyl)pyrrolidin-1-yl)-9-isopropyl-9H-purin-6-amine] the figure was 100 to 500 nM.

For the compound `CC(C)n1cnc2c(NCc3ccccc3-n3cccn3)nc(N3CCC(O)(Cn4cc(C(F)(F)F)cn4)CC3)nc21` [Compound I-35, 1-(6-((2-(1H-pyrazol-1-yl)benzyl)amino)-9-isopropyl-9H-purin-2-yl)-4-((4-(trifluoromethyl)-1H-pyrazol-1-yl)methyl)piperidin-4-ol], the IC50 in assay [1] (setting [4]) is more than 1000 nM.

As for `CC(C)n1cnc2c(NCc3ccccc3-n3cccn3)nc(N3CCC(N)C3)nc21` (stereo not drawn) [Compound I-36, N-(2-(1H-pyrazol-1-yl)benzyl)-2-(3-aminopyrrolidin-1-yl)-9-isopropyl-9H-purin-6-amine], the IC50 in assay [1] (setting [4]) was in the range of 100 to 500 nM.

As to `CC(C)n1cnc2c(NCc3ccccc3-n3cccn3)nc(N3CCC(O)CC3)nc21` [Compound I-37, 1-(6-((2-(1H-pyrazol-1-yl)benzyl)amino)-9-isopropyl-9H-purin-2-yl)piperidin-4-ol], the IC50 in assay [1] (setting [4]) fell in the range of 100 to 500 nM. On the same count and under the same terms, with `CC(C)n1cnc2c(NCc3ccccc3-n3cccn3)nc(N3CCC(C(N)=O)CC3)nc21` [Compound I-38, 1-(6-((2-(1H-pyrazol-1-yl)benzyl)amino)-9-isopropyl-9H-purin-2-yl)piperidine-4-carboxamide] the figure was 100 to 500 nM; with `CC(C)n1cnc2c(NCc3ccccc3-n3cccn3)nc(N[C@H]3CC[C@H](O)CC3)nc21` [Compound I-39, (1R,4R)-4-((6-((2-(1H-pyrazol-1-yl)benzyl)amino)-9-isopropyl-9H-purin-2-yl)amino)cyclohexan-1-ol], 500 to 1000 nM; with `CC(C)n1cnc2c(NCc3ccccc3-n3cccn3)nc(N3CCC(CO)CC3)nc21` [Compound I-40, (1-(6-((2-(1H-pyrazol-1-yl)benzyl)amino)-9-isopropyl-9H-purin-2-yl)piperidin-4-yl)methanol], 500 to 1000 nM. Same read-out and setting: with `CC(C)n1cnc2c(NCc3ccccc3-n3cccn3)nc(N3CCC(CN)CC3)nc21` [Compound I-41, N-(2-(1H-pyrazol-1-yl)benzyl)-2-(4-(aminomethyl)piperidin-1-yl)-9-isopropyl-9H-purin-6-amine] the figure was 100 to 500 nM. Same read-out and setting: for `CC(C)c1n[nH]c2c(NCc3ccccc3-n3cccn3)nc(N3CCC(N)CC3)nc12` [II-1, N-(2-(1H-pyrazol-1-yl)benzyl)-5-(4-aminopiperidin-1-yl)-3-isopropyl-1H-pyrazolo[4,3-d]pyrimidin-7-amine hydrochloride] the value was less than 100 nM; for `CC(C)c1n[nH]c2c(NCc3ccccc3-n3cccn3)nc(NC3CCNCC3)nc12` [II-2, N7-(2-(1H-pyrazol-1-yl)benzyl)-3-isopropyl-N5-(piperidin-4-yl)-1H-pyrazolo[4,3-d]pyrimidine-5,7-diamine], less than 100 nM.

For orientation: IC50 means the concentration at which inhibition is half-maximal.
